Assay results taken from publication PMC5365654, “Cyclic Boronates Inhibit All Classes of β-Lactamases” (Antimicrobial Agents and Chemotherapy, 2017).
Where two headings read alike, the source gives them in different places.

Assays:
Type in all cases: cell-based
[1] = tested on: P. aeruginosa PA12, ST 111; experiment: Broth microtiter dilution MIC, PA12; settings: Pseudomonas aeruginosa, VIM-2 (B), read-out: MIC (mg/liter) for β-lactam
Procedure: (§1) The in vitro activity of cyclic boronate 2 was assessed using nine clinical isolates carrying multiple β-lactamases (Table 3). The isolates selected included Enterobacteriaceae (E. coli ST 131, Klebsiella pneumoniae ST 258, and Providencia stuartii) producing class A ESBLs (CTX-M-15, CTX-M-27, SHV-5, and VEB-1), serine carbapenemase (KPC-2) and metallo-carbapenemases (VIM-1 and VIM-2), plasmid-mediated AmpC (CMY-2), and/or carbapenem-hydrolyzing OXA-48-like oxacillinases (OXA-181 and OXA-232) in various combinations. The activity against carbapenemase-producing strains of Pseudomonas aeruginosa (VIM-2) and Acinetobacter baumannii (OXA-23) was also investigated. All isolates have previously undergone extensive phenotypic and genotypic characterization ([60]).
(§2) MICs were determined using commercial Sensititre GN4F panels (Thermo Scientific, UK; lot B55051) and Mueller-Hinton II cation-adjusted broth (Oxoid, UK), with and without the addition of cyclic boronate 2 at a fixed concentration of 10 μg/ml. Plates were incubated at 37°C for 18 h and MICs read by eye following the addition of alamarBlue reagent (Trek Diagnostics).

[2] = tested on: A. baumannii AB14; experiment: Broth microtiter dilution MIC, AB14; settings: Acinetobacter baumannii, OXA-23 (D), OXA-51 (D), read-out: MIC (mg/liter) for β-lactam
Procedure: as §1, §2

[3] = tested on: E. coli EC86; experiment: Broth microtiter dilution MIC, EC86; settings: E. coli EC86, CTX-M-15 (A), CMY-4 (C), OXA-181 (D)
Procedure: as §1, §2

[4] = tested on: E. coli EC113, ST 131; experiment: Broth microtiter dilution MIC, EC113; settings: Escherichia coli, CTX-M-27 (A), read-out: MIC (mg/liter) for β-lactam
Procedure: as §1, §2

[5] = tested on: K. pneumoniae (KP41)
Procedure: (§3) Combination discs (Oxoid) were prepared with a fixed ratio of 2:1 between the β-lactam (μg) and cyclic boronate 2. Zones of inhibition around combined and unsupplemented discs were compared following overnight incubation on MH II plates.

[6] = tested on: K. pneumoniae (KP58)
Procedure: as §3

[7] = tested on: K. pneumoniae (KP15)
Procedure: as §3

[8] = tested on: E. coli EC114, ST 131; experiment: Broth microtiter dilution MIC, EC114; settings: Escherichia coli, TEM-1 (A), CTX-M-15 (A), OXA-1 (D), read-out: MIC (mg/liter) for β-lactam
Procedure: as §1, §2

[9] = tested on: K. pneumoniae KP41; experiment: Broth microtiter dilution MIC, KP41; settings: Klebsiella pneumoniae, TEM-1, SHV-1, SHV-5, SHV-11, CTX-M-15 (A), OXA-232 (D), read-out: MIC (mg/liter) for β-lactam
Procedure: as §1, §2

[10] = tested on: K. pneumoniae KP15; experiment: Broth microtiter dilution MIC, KP15; settings: Klebsiella pneumoniae, TEM-1 (A), SHV-11 (A), KPC-2 (A), read-out: MIC (mg/liter) for β-lactam
Procedure: as §1, §2

[11] = tested on: P. stuartii PS71; experiment: Broth microtiter dilution MIC, PS71; settings: Providencia stuartii, TEM-1 (A), SHV-5 (A), VEB-1 (A), VIM-1 (B), read-out: MIC (mg/liter) for β-lactam
Procedure: as §1, §2

[12] = tested on: E. coli EC107, ST 131; experiment: Broth microtiter dilution MIC, EC107; settings: Escherichia coli, CTX-M-15 (A), OXA-1 (D), read-out: MIC (mg/liter) for β-lactam
Procedure: as §1, §2

[13] = tested on: K. pneumoniae KP58; experiment: Broth microtiter dilution MIC, KP58; settings: Klebsiella pneumoniae, SHV-11 (A), VIM-4 (B), read-out: MIC (mg/liter) for β-lactam
Procedure: as §1, §2

[14] = with cyclic boronate 2 (10 mg/liter) supplementation
[15] = without cyclic boronate 2 supplementation

For CCN1CCN(C(=O)N[C@@H](C(=O)N[C@@H]2C(=O)N3[C@@H]2SC(C)(C)[C@@H]3C(=O)O)c2ccccc2)C(=O)C1=O [PIP, piperacillin], the MIC [1, 14] was 64 mg/L, the MIC [1, 15] was > 64 mg/L and the MIC [2, 14] was > 64 mg/L. The MIC [2, 15] was > 64 mg/L, the “MIC (mg/liter) for β-lactam” value [3, 15] was >64 mg/L and the MIC ([3]; Escherichia coli, with cyclic boronate 2 (10 mg/liter) supplementation, read-out: MIC (mg/liter) for β-lactam) was > 64 mg/L. The MIC [4, 14] was ≤ 16 mg/L, the MIC [4, 15] was > 64 mg/L and the “Synergy When Combined with (2): Fixed 2:1 µg Ratio” value [5] was “N”. For the same compound, the “Synergy When Combined with (2): Fixed 2:1 µg Ratio” value [6] was “Y”, the “Synergy When Combined with (2): Fixed 2:1 µg Ratio” value [7] was “Y” and the MIC [8, 14] was > 64 mg/L. The MIC [8, 15] was > 64 mg/L, the MIC [9, 14] was > 64 mg/L and the MIC [9, 15] was > 64 mg/L. For the same compound, the MIC [10, 14] was > 64 mg/L, the MIC [10, 15] was > 64 mg/L and the MIC [11, 14] was > 64 mg/L. The MIC [11, 15] was > 64 mg/L, the MIC [12, 14] was > 64 mg/L and the MIC [12, 15] was > 64 mg/L. The MIC [13, 14] was > 64 mg/L and the MIC [13, 15] was > 64 mg/L.
